Patent US20190352268A1, “CANNABINOID RECEPTOR MEDIATING COMPOUNDS” (The USA, as represented by the Secretary, Department of …, priority 2015, published 2019)
Where two headings read alike, the source gives them in different places.

Target: CB1 (Mus musculus, UniProt P47746)
Experiment: CB1 radioligand displacement assay in mouse brain membranes
Assay type: binding
Parameters: radioligand displacement assay in mouse brain membranes; from tissue; host or cells: mouse brain membranes
Settings: read-out: Ki CB1

CB1, sequence (P47746 whole entry): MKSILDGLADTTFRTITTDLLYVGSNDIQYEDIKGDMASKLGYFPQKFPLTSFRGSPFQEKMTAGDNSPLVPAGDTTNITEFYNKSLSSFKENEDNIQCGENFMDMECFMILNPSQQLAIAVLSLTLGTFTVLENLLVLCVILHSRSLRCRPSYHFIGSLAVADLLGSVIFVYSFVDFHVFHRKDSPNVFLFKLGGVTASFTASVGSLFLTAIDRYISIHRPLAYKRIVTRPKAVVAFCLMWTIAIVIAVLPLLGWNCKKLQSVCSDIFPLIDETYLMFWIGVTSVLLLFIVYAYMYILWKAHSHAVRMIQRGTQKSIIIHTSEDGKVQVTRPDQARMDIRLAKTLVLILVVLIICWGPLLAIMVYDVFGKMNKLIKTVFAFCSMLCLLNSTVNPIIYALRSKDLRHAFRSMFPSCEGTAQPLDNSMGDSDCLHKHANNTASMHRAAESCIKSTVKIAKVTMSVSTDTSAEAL

SMILES | Ki (Table 2) [nM] | Ki (Table 1) [nM]
CCCN(CCC)/C(N)=N/C(=N/S(=O)(=O)c1ccc(Cl)cc1)N1CC(c2ccccc2)C(c2ccc(Cl)cc2)=N1 (stereo not shown) [Compound 37] | 138 | –
NC(=NC(=NS(=O)(=O)c1ccc(Cl)cc1)N1CC(c2ccccc2)C(c2ccc(Cl)cc2)=N1)c1ccccc1F (stereo not shown) [Compound 15] | 19 | –
CC(C)(C)N/C(N)=N/C(=N/S(=O)(=O)c1ccc(Cl)cc1)N1CC(c2ccccc2)C(c2ccc(Cl)cc2)=N1 (stereo not shown) [Compound 46] | 49 | –
COCCN(C)/C(N)=N/C(=N/S(=O)(=O)c1ccc(Cl)cc1)N1CC(c2ccccc2)C(c2ccc(Cl)cc2)=N1 (stereo not shown) [Compound 43] | 908 | –
CC(N)=NC(=NS(=O)(=O)c1ccc(F)cc1)N1CC(c2ccccc2)C(c2ccc(Cl)cc2)=N1 (stereo not shown) [Compound 27] | 60 | –
N/C(=N/C(=N\S(=O)(=O)c1ccc(Cl)cc1)N1CC(c2ccccc2)C(c2ccc(Cl)cc2)=N1)c1ccc(F)cc1 (single isomer, unassigned) [Compound 10E2] | 524 | –
NC(=NC(=NS(=O)(=O)c1ccc(Cl)cc1)N1CC(c2ccccc2)C(c2ccc(Cl)cc2)=N1)c1cccs1 (stereo not shown) [Compound 16] | 60 | –
CN(C)/C(N)=N/C(=N/S(=O)(=O)c1ccc(Cl)cc1)N1CC(c2ccccc2)C(c2ccc(Cl)cc2)=N1 (racemic) [Compound 44, rac-N-(amino(dimethylamino)methylene)-3-(4-chlorophenyl)-N-((4-chlorophenyl)sulfonyl)-4-phenyl-4,5-dihydro-1H-pyrazole-1-carboximidamide] | – | 171
NC(=NC(=NS(=O)(=O)c1ccc(I)cc1)N1CC(c2ccccc2)C(c2ccc(Cl)cc2)=N1)c1ccc(F)cc1 (stereo not shown) [Compound 87] | 12 | –
CC(C)SC(N)=NC(=NS(=O)(=O)c1ccc(Cl)cc1)N1CC(c2ccccc2)C(c2ccc(Cl)cc2)=N1 (stereo not shown) [Compound 23] | 166 | –
CC(N)=NC(=NS(=O)(=O)c1ccccc1)N1CC(c2ccccc2)C(c2ccc(Cl)cc2)=N1 (stereo not shown) [Compound 30] | 114 | –
CC(N)=NC(=NS(=O)(=O)c1ccc(Br)cc1)N1CC(c2ccccc2)C(c2ccc(Cl)cc2)=N1 (stereo not shown) [Compound 28] | 18 | –
CC(N)=NC(=NS(=O)(=O)c1ccc(C(C)(C)C)cc1)N1CC(c2ccccc2)C(c2ccc(Cl)cc2)=N1 (stereo not shown) [Compound 98] | 48 | –
NC(COc1ccccc1)=NC(=NS(=O)(=O)c1ccc(Cl)cc1)N1CC(c2ccccc2)C(c2ccc(Cl)cc2)=N1 (stereo not shown) [Compound 13] | 72 | –
CC(=O)N/C(N)=N/C(=N/S(=O)(=O)c1ccc(OC(F)(F)F)cc1)N1CC(c2ccccc2)C(c2ccc(Cl)cc2)=N1 (stereo not shown) [Compound 90] | 1.8 | –
Cc1cc(C)n(C(N)=NC(=NS(=O)(=O)c2ccc(C(F)(F)F)cc2)N2CC(c3ccccc3)C(c3ccc(Cl)cc3)=N2)n1 (stereo not shown) [Compound 85] | 1.5 | –
NC(=NC(=NS(=O)(=O)c1ccc(Cl)cc1)N1CC(c2ccccc2)C(c2ccc(Cl)cc2)=N1)SCc1ccccc1 (stereo not shown) [Compound 24] | 127 | –
N/C(=N\C(=N\S(=O)(=O)c1ccc(Cl)cc1)N1CC(c2ccccc2)C(c2ccc(Cl)cc2)=N1)NCCc1c[nH]c2ccccc12 (stereo not shown) [Compound 58] | 585 | –
CN(CCC#N)/C(N)=N/C(=N/S(=O)(=O)c1ccc(Cl)cc1)N1CC(c2ccccc2)C(c2ccc(Cl)cc2)=N1 (stereo not shown) [Compound 61] | 203 | –
NC(=NC(=NS(=O)(=O)c1ccc(C(F)(F)F)cc1)N1CC(c2ccccc2)C(c2ccc(Cl)cc2)=N1)c1ccc(F)cc1 (stereo not shown) [Compound 79] | 9 | –
COCCN/C(N)=N/C(=N/S(=O)(=O)c1ccc(Cl)cc1)N1CC(c2ccccc2)C(c2ccc(Cl)cc2)=N1 (stereo not shown) [Compound 40] | 848 | –
CC(C)(C)OC(=O)N/C(N)=N/C(=N/S(=O)(=O)c1ccc(Cl)cc1)N1CC(c2ccccc2)C(c2ccc(Cl)cc2)=N1 (stereo not shown) [Compound 41] | 6.5 | 6.5
NC(=NC(=NS(=O)(=O)c1ccc(Cl)cc1)N1CC(c2ccccc2)C(c2ccc(Cl)cc2)=N1)c1ccc(F)cc1F (stereo not shown) [Compound 19] | 7.7 | –
NC(=NC(=NS(=O)(=O)c1ccc(C(F)(F)F)cc1)N1CC(c2ccccc2)C(c2ccc(Cl)cc2)=N1)n1cccn1 (stereo not shown) [Compound 84] | 28 | –
